From patent US6277886A (priority 1996, dated 2001)
Where a name gives a salt, the structure may show the parent alone. Read-outs that look alike come from different tables or passages of the source.

Legend:
[1] = system: reserpine induced ptosis in rats; assay: Reserpine-induced ptosis in rats; format: in vivo; settings: reserpine 5 mg/kg i.p., 0-4 scale, 4 = eyes completely open, saline 0.86
Excerpt: Reserpine-induced ptosis and its reversal test. Reserpine causes depletion of catecholamine stores, especially norepinephrine. This effect in the live animal is manifested among other things, in ptosis. Drugs that can prevent or inhibit reserpine-induced ptosis act either directly as noradrenergic agonists, or indirectly by decreasing or preventing the metabolic elimination of endogenous norepinephrine. MAO inhibitors belong to the latter category.

[2] = system: nerve cell death; settings: sub-inhibitory levels; in words; cited from earlier work
[3] = system: noradrenaline depletion in rodents; settings: in words; cited from earlier work
[4] = system: human subjects; settings: cited from earlier work
[5] = system: pressor response to catecholamines in the cat; assay: Pressor response to catecholamines in the anesthetized cat before and after S(-)PAI; format: in vivo; settings: before S(-)PAI
Description: Cats were anesthetized with i.v. nembutal 25 mg/kg. Anesthesia was maintained by additional injections of nembutal, 5 mg/kg, as needed. The femoral artery was cannulated and connected to a Statham pressure transducer for blood pressure recordings on a Grass multichannel Polygraph. The femoral vein was cannulated for i.v. injection of drugs.

[6] = target: MAO-A (Rattus norvegicus, UniProt P21396); assay: in vivo; settings: for ED50: rat, read-out: IC-50 for Inhibition of MAO-A
Chain of MAO-A (P21396 whole entry): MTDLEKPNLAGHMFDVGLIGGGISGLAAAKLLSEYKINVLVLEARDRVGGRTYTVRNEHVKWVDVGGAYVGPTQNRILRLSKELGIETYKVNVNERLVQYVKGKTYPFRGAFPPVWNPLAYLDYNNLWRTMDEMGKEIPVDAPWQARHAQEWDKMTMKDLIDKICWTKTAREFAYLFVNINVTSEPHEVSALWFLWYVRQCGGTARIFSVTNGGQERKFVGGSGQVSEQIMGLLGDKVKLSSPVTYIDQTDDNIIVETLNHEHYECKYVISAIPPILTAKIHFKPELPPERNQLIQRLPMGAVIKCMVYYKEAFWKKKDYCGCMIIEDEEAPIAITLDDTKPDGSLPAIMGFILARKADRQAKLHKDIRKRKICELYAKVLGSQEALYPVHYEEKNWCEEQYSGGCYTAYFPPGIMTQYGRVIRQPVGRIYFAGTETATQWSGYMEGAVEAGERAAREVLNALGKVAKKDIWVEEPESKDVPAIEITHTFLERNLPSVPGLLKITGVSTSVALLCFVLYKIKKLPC
Description: (§1) Rats (male Sprague-Dawley-derived) weighing 250±20 g were treated with one of the enantionmers or the racemic form of PAI by intraperitoneal injection (ip) or oral gavage (po), and decapitated 1h or 2h later respectively. Groups of three rates were used for each dose level of substance, and MAO activity determined in brain and liver using the general technique described in Example 19 of U.S. Pat. No. 5,387,612. The amount of protein in each incubation was determined using the Follin-Lowrymethod, and enzyme activity calculated as nmol of substrate metabolized per hour of incubation for each mg of protein. Activity of MAO in tissues from animals treated with the enantiomers or the racemic form of PAI was expressed as a percentage of the enzyme activity in a group of control animals administered vehicle (water for oral administration, 0.9% saline for ip injection).

[7] = target: MAO-B (Rattus norvegicus, UniProt P19643); assay: in vivo; settings: for activity for inhibition of MAO-B: in words; for ED50: rat
Chain of MAO-B (Rattus norvegicus, UniProt P19643) (P19643 whole entry): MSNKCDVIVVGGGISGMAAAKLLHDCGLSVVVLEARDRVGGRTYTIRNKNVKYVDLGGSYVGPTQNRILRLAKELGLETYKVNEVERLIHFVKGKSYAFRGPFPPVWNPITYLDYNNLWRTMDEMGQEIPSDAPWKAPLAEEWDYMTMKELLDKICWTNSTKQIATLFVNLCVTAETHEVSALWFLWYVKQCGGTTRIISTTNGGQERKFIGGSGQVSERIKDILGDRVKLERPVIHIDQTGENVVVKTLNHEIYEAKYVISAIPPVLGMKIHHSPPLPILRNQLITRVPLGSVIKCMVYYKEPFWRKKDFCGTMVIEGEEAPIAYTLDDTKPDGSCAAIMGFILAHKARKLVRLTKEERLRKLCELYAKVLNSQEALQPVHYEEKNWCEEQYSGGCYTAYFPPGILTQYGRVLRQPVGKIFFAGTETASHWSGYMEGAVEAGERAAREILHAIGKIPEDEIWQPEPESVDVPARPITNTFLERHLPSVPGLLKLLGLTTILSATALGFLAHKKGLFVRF
Description: as §1

[8] = system: ICR male mice; assay: Hypobaric hypoxia model, survival time of mice at 200 mmHg; format: in vivo; settings: control = 100
Excerpt: The model used is analogous to the one described by M. Nakanishi et al., Life Sci. 13: 467-476 (1973); and by Y'Oshiro et al., J. Med. Chem. 34: 2014-2023 (1991). A group of 4 ICR male mice each weighing 20-25 g were placed in a 2.5 L glass chamber (A) at atmospheric pressure. Chamber A is connected to a 12 L chamber (B) through a valve which is initially […] closed. The air in chamber B was evacuated to a pressure of 100 mmHg. The valve between the two chambers was opened rapidly, whereupon the pressure in chamber A fell within 14 seconds to 200 mmHg. The survival time of the mice in chamber A was determined to a maximum hypobaric exposure of 15 minutes. Effect of drug pretreatment on survival is calculated as the percent of the survivai time of the drug-treated group as compared to saline-injected or vehicle-injected group. Control groups were tested twice, before and after each experiment and consisted of 12 to 16 mice, 4 per group. Each tested group always consisted of 4 mice in order to ensure a constant residual volume of oxygen in all tests. […] The effect of each dose of the test drug was determined in duplicate, using a total of 8 mice, 4 per group. All drugs were administered i.p. one hour prior to hypoxia. Positive reference drugs were sodium pentobarbital at a dose of 40 mg/kg, or diazepam at a dose of 10 mg.kg, given 0.5 hour prior to hypoxia.

[9] = system: male Wistar rats after middle cerebral artery occlusion (MCA-O)
Excerpt: In order to expose the left middle cerebral artery, a cut was made in the temporal muscle. The tip of the coronoid process of mandible was excised as well and removed with a fine rongeur. Craniectomy was made with a dental drill at the junction between the median wall and the roof of the inferotemporal fossa.
The dura matter was opened carefully using a 27 gauge needle. […] Following this, the temporalis muscle was sutured and laid over the craniectomy site. The skin was closed with a running 3-0 silk suture. […] The volume of brain tissue incurring damage following ischemia was determined.

[10] = system: MAO-B; settings: in vitro; cited from earlier work
[11] = system: MAO-A/MAO-B; settings: in vitro; cited from earlier work
[12] = system: rat cerebellum cells; settings: in words; cited from earlier work
[13] = system: rat optic nerve; settings: in words; cited from earlier work
[14] = system: noradrenaline uptake; settings: in words; cited from earlier work
[15] = po liver, 2 h after oral gavage
[16] = 10 mg/kg i.p., one hour prior to hypoxia
[17] = 50 mg/kg i.p., one hour prior to hypoxia
[18] = 100 mg/kg i.p., one hour prior to hypoxia

Structure (SMILES): C#CCN(C)[C@H](C)Cc1ccccc1 [R(-)Deprenyl]
- Mean score of reserpine-induced ptosis ([1]; 5 mg/kg i.p.): 1.3
- Mean score of reserpine-induced ptosis ([1]; 10 mg/kg i.p.): 3.16
- prevention of nerve cell death [2]: prevent nerve cell death
- neuroprotective activity (percent restoration of noradrenaline after DSP-4) [3]: displayed "neuroprotective activity"
- dose at which cardiovascular function could be compromised ([4]; human subjects, daily dose, recommended dose 10 mg): 30 to 40 mg
- safety factor in clinical practice ([4]; human): 3 to 4

Structure (SMILES): NCCc1ccc(O)cc1 [tyramine, reference compound]
- Δ mean arterial pressure before S(-)PAI ([5]; 2.0 μg/kg i.v.): 11 mmHg
- Δ mean arterial pressure before S(-)PAI ([5]; 5.0 μg/kg i.v.): 19 mmHg
- Δ mean arterial pressure before S(-)PAI ([5]; 10.0 μg/kg i.v.): 26 mmHg
- Δ mean arterial pressure before S(-)PAI ([5]; 20.0 μg/kg i.v.): 42 mmHg

Structure (SMILES): C#CCN[C@H]1CCc2ccccc21 [S(-)PAI mesylate, S-(-)-N-Propargyl-1-aminoindan mesylate]
- activity for inhibition of MAO-A ([6]; in words): extremely low activity
- IC-50 for Inhibition of MAO-A ([6]; ip liver, 1 h after ip injection): > 10 mg/kg
- IC-50 for Inhibition of MAO-A [6, 15]: > 10 mg/kg
- ED50 ([6]; ip, 1 h): > 10 mg/kg
- ED50 ([6]; po, 2 h): > 10 mg/kg
- activity for inhibition of MAO-B [7]: extremely low activity
- ED50 ([7]; ip, 1 h, read-out: IC-50 for Inhibition of MAO-B, ip brain, 1 h after ip injection): > 10 mg/kg
- ED50 ([7]; ip, 1 h, read-out: IC-50 for Inhibition of MAO-B, ip liver, 1 h after ip injection): > 10 mg/kg
- ED50 ([7]; po, 2 h, read-out: IC-50 for Inhibition of MAO-B, po brain, 2 h after oral gavage): > 10 mg/kg
- ED50 ([7]; po, 2 h, read-out: IC-50 for Inhibition of MAO-B, po liver, 2 h after oral gavage): > 10 mg/kg
- % protection ± SD relative to control (relative survival time) [8, 16]: 84 ± 47%
- % protection ± SD relative to control (relative survival time) [8, 17]: 406 ± 247%
- % protection ± SD relative to control (relative survival time) [8, 18]: 390 ± 197%

Structure (SMILES): C#CCN[C@@H]1CCc2ccccc21 [R(+)PAI, R(+) enantiomer of N-propargyl-1-aminoindan]
- improvement in neurological score severity [9]: ~20%
- activity as inhibitor of MAO-B relative to S(-)PAI [10]: ~7,000 times more active
- selectivity for MAO-B than MAO-A [11]: more than 29 times more selective
- prevention of NMDA induced cell death [12]: active as a "neuroprotective agent"
- slowing neuronal degeneration after crushing the rat optic nerve [13]: slowing neuronal degeneration

Structure (SMILES): CN1C(=O)CN=C(c2ccccc2)c2cc(Cl)ccc21 [Diazepam]
- % protection ± SD relative to control (relative survival time) ([8]; 10 mg/kg i.p., 0.5 hour prior to hypoxia): 430 ± 59%

Structure (SMILES): CNC[C@H](O)c1cccc(O)c1 [phenylephrine, reference compound]
- Δ mean arterial pressure before S(-)PAI ([5]; 0.20 μg/kg i.v.): 9 mmHg
- Δ mean arterial pressure before S(-)PAI ([5]; 0.50 μg/kg i.v.): 17 mmHg
- Δ mean arterial pressure before S(-)PAI ([5]; 1.0 μg/kg i.v.): 21 mmHg
- Δ mean arterial pressure before S(-)PAI ([5]; 2.0 μg/kg i.v.): 40 mmHg

Structure (SMILES): C#CCN[C@@H]1CCc2ccccc21 [R(+)PAI mesylate, reference compound]
- IC-50 for Inhibition of MAO-A [6, 15]: > 5 mg/kg
- ED50 ([6]; po, 2 h): > 5 mg/kg
- activity for inhibition of MAO-B [7]: selectivity
- % protection ± SD relative to control (relative survival time) [8, 16]: 116 ± 47%
- % protection ± SD relative to control (relative survival time) [8, 17]: 410 ± 151%
- % protection ± SD relative to control (relative survival time) [8, 18]: 358 ± 179%

Structure (SMILES): C#CCN(C)[C@@H](C)Cc1ccccc1 [S(+) deprenyl]
- neuroprotective activity (percent restoration of noradrenaline after DSP-4) [3]: far lower "neuroprotective activity" in comparison with R(-) deprenyl
- noradrenaline uptake inhibition compared to R(-) deprenyl [14]: superior noradrenaline uptake inhibitor as compared to R(-) deprenyl

Structure (SMILES): CCCC(C)C1(CC)C(=O)NC(=O)NC1=O (stereo not shown) [Pentobarbital]
- % protection ± SD relative to control (relative survival time) ([8]; 20 mg/kg i.p., 0.5 hour prior to hypoxia): 325 ± 166%

Structure (SMILES): NC[C@H](O)c1ccc(O)c(O)c1 [norepinephrine, reference compound]
- Δ mean arterial pressure before S(-)PAI ([5]; 0.02 μg/kg i.v.): 8 mmHg
- Δ mean arterial pressure before S(-)PAI ([5]; 0.05 μg/kg i.v.): 23 mmHg
- Δ mean arterial pressure before S(-)PAI ([5]; 0.10 μg/kg i.v.): 31 mmHg
- Δ mean arterial pressure before S(-)PAI ([5]; 0.20 μg/kg i.v.): 46 mmHg
